Where “and” joins values, the source holds several entries; their conditions need not be identical. Identical values can stand only once.
Experiments:
Mus musculus [1] = test: Number of mice cured at a subcutaneous dose of 640 mg/kg.; assay type: functional
Mus musculus [2] = test: Number of mice cured at a dose of 160 mg/kg sc; assay type: functional; settings: route subcutaneous
Plasmodium berghei [3] = test: Antimalarial activity against trophozoite-induced Plasmodium berghei in mice (Mus musculus) at 160 mg/kg subcutaneous dose; assay type: functional
Plasmodium berghei [4] = test: Antimalarial activity against trophozoite-induced Plasmodium berghei in mice (Mus musculus); assay type: functional
Mus musculus [5] = test: Antimalarial effect against trophozoite-induced Plasmodium berghei in mice (Mus musculus) at dosage of 80 mg/kg after subcutaneous administration; assay type: functional
Mus musculus [6] = test: Number of mice cured at a dose of 320 mg/kg sc; assay type: functional; settings: route subcutaneous
Mus musculus [7] = test: Number of mice cured at a dose of 80 mg/kg sc; assay type: functional; settings: route subcutaneous
[8] = The ratio of SD90 of the quinine hydrochloride, to the SD90 of the test substance for the Dose of 9 mg/kg; assay type: functional
Plasmodium berghei [9] = test: Antimalarial effect against trophozoite-induced Plasmodium berghei in mice (Mus musculus) after 20 mg/kg subcutaneous dose; assay type: functional
Plasmodium berghei [10] = test: Antimalarial effect against trophozoite-induced Plasmodium berghei in mice (Mus musculus) after 40 mg/kg subcutaneous dose; assay type: functional
Plasmodium berghei [11] = test: (§1) Antimalarial effect against trophozoite-induced Plasmodium berghei in mice (Mus musculus) at 640 mg/kg subcutaneous dose; assay type: functional
Plasmodium berghei [12] = test: Antimalarial effect against trophozoite-induced Plasmodium berghei in mice (Mus musculus) at 320 mg/kg subcutaneous dose; assay type: functional
Plasmodium berghei [13] = test: as §1; assay type: functional; remark: listed apart in the source
[14] = The ratio of SD90 of the quinine hydrochloride, to the SD90 of the test substance for the Dose of 25 mg/kg; assay type: functional
Mus musculus [15] = species on record: Mus musculus; test: Antimalarial effect against trophozoite-induced Plasmodium berghei in mice (Mus musculus); assay type: functional
Mus musculus [16] = test: Antimalarial effect against trophozoite induced Plasmodium berghei in mice (Mus musculus) at dosage of 40 mg/kg after subcutaneous administration; assay type: functional
Plasmodium berghei [17] = test: Antimalarial effect against trophozoite-induced Plasmodium berghei in mice (Mus musculus) at 160 mg/kg subcutaneous dose; assay type: functional
Mus musculus [18] = test: Number of mice cured at a subcutaneous dose of 320 mg/kg.; assay type: functional
Mus musculus [19] = test: Number of mice cured at a dose of 640 mg/kg sc; assay type: functional; settings: route subcutaneous
Plasmodium berghei [20] = test: Antimalarial effect against trophozoite-induced Plasmodium berghei in mice (Mus musculus) at 80 mg/kg subcutaneous dose; assay type: functional
[21] = The ratio of SD90 of the quinine hydrochloride, to the SD90 of the test substance for the Dose of >37 mg/kg; assay type: functional
Mus musculus [22] = test: (§2) Number of toxic deaths at a dose of 640 mg/kg; assay type: toxicity, organism-based; parameters: dose 640 mg/kg; settings: in vivo
Mus musculus [23] = test: Number of toxic deaths at dose of 640 mg/kg; assay type: toxicity, organism-based; parameters: dose 640 mg/kg; settings: in vivo
Mus musculus [24] = test: Number of toxic deaths at doae of 320 mg/kg; assay type: toxicity, organism-based; parameters: dose 320 mg/kg; settings: in vivo
[25] = (§3) The ratio of SD90 of the quinine hydrochloride, to the SD90 of the test substance for the Dose of 8.5 mg/kg; assay type: functional
Mus musculus [26] = test: as §3; assay type: functional
Mus musculus [27] = test: Number of mice cured at a subcutaneous dose of 160 mg/kg.; assay type: functional
Mus musculus [28] = test: Antimalarial effect against trophozoite induced Plasmodium berghei in mice (Mus musculus) at dosage of 160 mg/kg after subcutaneous administration; No. of mice (Mus musculus) surviving after 60 days 1; assay type: functional
Mus musculus [29] = test: Antimalarial effect against trophozoite-induced Plasmodium berghei in mice (Mus musculus) at dosage of 80 mg/kg after subcutaneous administration; No. of mice (Mus musculus) surviving after 60 days 1; assay type: functional
Mus musculus [30] = test: Antimalarial effect against trophozoite induced Plasmodium berghei in mice (Mus musculus) at dosage of 640 mg/kg after subcutaneous administration; No. of mice (Mus musculus) surviving after 60 days 3; assay type: functional
[31] = The ratio of SD90 of the quinine hydrochloride, to the SD90 of the test substance for the Dose of 10.5 mg/kg; assay type: functional
[32] = The ratio of SD90 of the quinine hydrochloride, to the SD90 of the test substance for the Dose of >30 mg/kg; assay type: functional
[33] = The ratio of SD90 of the quinine hydrochloride, to the SD90 of the test substance for the Dose of >147 mg/kg; assay type: functional
Mus musculus [34] = test: Number of mice cured at a dose of 40 mg/kg sc; assay type: functional; settings: route subcutaneous
[35] = The ratio of SD90 of the quinine hydrochloride, to the SD90 of the test substance for the Dose of 0.28 mg/kg; assay type: functional
[36] = The ratio of SD90 of the quinine hydrochloride, to the SD90 of the test substance for the Dose of 50 mg/kg; assay type: functional
Mus musculus [37] = test: as §2; assay type: functional

| SMILES | SD90 (Plasmodium berghei [4]) [mg/kg/day] | MST (Plasmodium berghei [10]; 40 mg/kg) | MST (Plasmodium berghei [11]) [days] | MST (Plasmodium berghei [12]) [days] | MST (Plasmodium berghei [13]) [days] | MST (Plasmodium berghei [17]; 160 mg/kg) | MST (Plasmodium berghei [20]) [days] | MST (Plasmodium berghei [9]) [days] | MST (Plasmodium berghei [10]) [days] | No. of toxic deaths (Mus musculus [22]) | other results |
| --- | --- | --- | --- | --- | --- | --- | --- | --- | --- | --- | --- |
| CCN(CC)C1CCC(Nc2nc(Nc3cc(Cl)cc(Cl)c3)nc3ccccc23)CC1 (stereo in doubt; 34) | 9 | 7.7 days and 7.5 days | – | – | – | – | – | – | – | – | No. of cured (Mus musculus [1]): 5; No. of cured (Mus musculus [2]): 2; MST (Plasmodium berghei [3]; 160 mg/kg): 26.9 days and 23.4 days; MST (Mus musculus [5]; 80 mg/kg): 13.4 days; No. of cured (Mus musculus [6]; 320 mg/kg): 5 and 3; No. of cured (Mus musculus [7]): 1; Ratio [8]: 8.3; MST (Plasmodium berghei [9]; 20 mg/kg): 2.3 days |
| OC1CCCN(CCCNc2nc(Nc3ccc(I)cc3)nc3ccccc23)C1 (configuration not stated) | – | – | 20.1 | 13.1 | 24.1 | 8 days and 5.8 days | 4 | 1 | 1.2 | – | Ratio [14]: 3; SD90 (Mus musculus [15]): 25 mg/kg/day; MST (Mus musculus [16]): 0.8 days; No. of survivals (Mus musculus [18]): 1; No. of survivals (Mus musculus [19]): 2 |
| c1ccc2c(NCCCN3CCCC3)nc(Nc3ccncc3)nc2c1 | >37 | – | – | – | – | – | – | – | 0.3 | 5 and 2 | MST (Plasmodium berghei [3]): 0.9 days; Ratio [21]: <2 |
| CCN(CC)CCCC(C)Nc1nc(Nc2ccc([N+](=O)[O-])cc2)c2ccccc2n1 (configuration not stated) | – | 0.8 days and 0.6 days | 5 | 5 | 4.3 | 2.6 days and 3.2 days | 1.4 | 0 | – | – | No. of toxic deaths (Mus musculus [23]): 5; No. of toxic deaths (Mus musculus [24]): 2 |
| CCN(CC)C1CCC(Nc2nc(Nc3ccc(Cl)c(Cl)c3)nc3ccccc23)CC1 (configuration not stated) | 8.5 | 10.1 days and 10.5 days | – | 22.9 | – | – | – | 0.9 | – | – | MST (Plasmodium berghei [3]; 160 mg/kg): 13.9 days and 13.7 days; Ratio [25]: 8.8; Ratio (Mus musculus [26]): 8.8; No. of survivals (Mus musculus [27]): 1; MST (Mus musculus [5]): 10.4 days; MST (Mus musculus [28]): 13.7 days; No. of cured (Mus musculus [6]): 5; MST (Mus musculus [29]): 10.4 days |
| CN1CCCC1CCNc1nc(Nc2ccc(Cl)c(Cl)c2)nc2ccccc12 (configuration not stated) | 10.5 | – | 29.8 | 20.8 | – | 13.2 days and 13.9 days | 8 | – | 4 | – | No. of cured (Mus musculus [1]): 4; MST (Mus musculus [30]): 28.9 days; No. of cured (Mus musculus [6]): 2; Ratio [31]: 7.1; MST (Plasmodium berghei [9]; 20 mg/kg): 3 days and 3.9 days |
| CCOc1ccc(Nc2nc(NCCN(CC)CC)c3ccc(Cl)cc3n2)cc1CN(CC)CC | >30 | – | – | – | – | – | – | – | 0.6 | 5 | Ratio [32]: <2.5; MST (Plasmodium berghei [17]): 0.8 days |
| OC1CCCN(CCCNc2nc(Nc3nc(-c4ccccc4)cs3)nc3ccccc23)C1 (configuration not stated) | >147 | – | – | – | 0.8 | – | – | – | 0.2 | – | Ratio [33]: <0.5; MST (Plasmodium berghei [17]): 0.4 days |
| CCc1nc(N)nc(N)c1-c1ccc(Cl)cc1 [PYRIMETHAMINE] | 0.28 | – | – | – | – | – | – | 7.7 | – | – | No. of survivals (Mus musculus [34]): 1; No. of survivals (Mus musculus [27]): 5; No. of survivals (Mus musculus [18]; 320 mg/kg): 2 and 3; No. of survivals (Mus musculus [7]): 3; Ratio [35]: 270; No. of survivals (Mus musculus [19]; 640 mg/kg): 1 and 2 |
| CCN(CC)CCNc1nc(Nc2ccc(N3CCN(C)CC3)cc2)nc2ccccc12 | 50 | 1 days and 0.8 days | – | 5.2 | – | 4.8 days and 4.2 days | 3.4 | 0.2 | – | 3 | MST (Plasmodium berghei [11]; 640 mg/kg): 6.8 days and 6.3 days; Ratio [36]: 1.5; No. of toxic deaths (Mus musculus [37]): 3 |

Source: ChEMBL document CHEMBL1121775, “Synthesis and antimalarial effects of N2-aryl-N4-[(dialkylamino)alkyl]- and N4-aryl-N2-[(dialkylamino)alkyl]-2,4-quinazolinediamines” (J Med Chem, 1981)
